Measured values from PMC6199744, “Development of Chemical Proteomics for the Folateome and Analysis of the Kinetoplastid Folateome” (ACS Infectious Diseases, 2018).
Like-named read-outs stand apart in the source and are kept apart here.

Columns and labels:
Format in all cases: binding
[1] = biological target: T1, HeLa cell extract proteins (Homo sapiens, UniProt Q8N5P1)
T1 construct: endogenous in cells; host or cells: HeLa cell extract
T1 sequence (Q8N5P1 1-291): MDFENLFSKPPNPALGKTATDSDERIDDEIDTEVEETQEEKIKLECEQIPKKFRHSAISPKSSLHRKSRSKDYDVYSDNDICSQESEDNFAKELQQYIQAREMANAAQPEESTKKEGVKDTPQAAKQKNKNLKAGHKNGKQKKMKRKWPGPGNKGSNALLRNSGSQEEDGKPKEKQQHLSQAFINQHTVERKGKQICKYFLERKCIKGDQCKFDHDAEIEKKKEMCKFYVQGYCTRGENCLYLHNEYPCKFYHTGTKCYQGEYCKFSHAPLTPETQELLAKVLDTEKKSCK

[2] = biological target: T2, HeLa cell extract proteins (Homo sapiens, UniProt P49189)
T2 construct: endogenous in cells; host or cells: HeLa cell extract

[3] = biological target: T3, HeLa cell extract proteins (Homo sapiens, UniProt P17844)
T3 construct: endogenous in cells; host or cells: HeLa cell extract

[4] = biological target: T4, HeLa cell extract proteins (Homo sapiens, UniProt Q13315)
T4 construct: endogenous in cells; host or cells: HeLa cell extract

[5] = biological target: T5, HeLa cell extract proteins (Homo sapiens, UniProt P63104)
T5 construct: endogenous in cells; host or cells: HeLa cell extract
T5 sequence (P63104 1-245): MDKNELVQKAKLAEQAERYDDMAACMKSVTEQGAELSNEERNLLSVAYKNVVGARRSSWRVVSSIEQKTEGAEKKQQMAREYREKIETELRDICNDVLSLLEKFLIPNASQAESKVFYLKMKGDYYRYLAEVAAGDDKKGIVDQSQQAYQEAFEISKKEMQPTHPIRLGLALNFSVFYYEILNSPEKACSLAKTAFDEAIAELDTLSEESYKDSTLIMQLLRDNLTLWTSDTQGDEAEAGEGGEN

[6] = biological target: T6, HeLa cell extract proteins (Homo sapiens, UniProt Q00610)
T6 construct: endogenous in cells; host or cells: HeLa cell extract

[7] = biological target: T7, HeLa cell extract proteins (Homo sapiens, UniProt Q99570)
T7 construct: endogenous in cells; host or cells: HeLa cell extract

[8] = biological target: T8, HeLa cell extract proteins (Homo sapiens, UniProt O60547)
T8 construct: endogenous in cells; host or cells: HeLa cell extract
T8 sequence (O60547 1-372): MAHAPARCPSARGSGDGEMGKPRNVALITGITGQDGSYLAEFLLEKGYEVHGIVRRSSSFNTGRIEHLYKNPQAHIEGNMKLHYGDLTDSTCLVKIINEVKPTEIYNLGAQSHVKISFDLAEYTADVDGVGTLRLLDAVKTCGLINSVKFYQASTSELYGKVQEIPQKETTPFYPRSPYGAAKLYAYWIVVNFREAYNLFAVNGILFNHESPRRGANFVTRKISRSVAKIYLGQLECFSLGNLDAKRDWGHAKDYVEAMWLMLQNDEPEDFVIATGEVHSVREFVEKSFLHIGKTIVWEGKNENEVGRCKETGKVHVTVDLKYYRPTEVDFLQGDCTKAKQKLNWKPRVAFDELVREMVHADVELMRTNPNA

[9] = biological target: T9, HeLa cell extract proteins (Homo sapiens, UniProt P18206)
T9 construct: endogenous in cells; host or cells: HeLa cell extract
T9 sequence (P18206 1-1134): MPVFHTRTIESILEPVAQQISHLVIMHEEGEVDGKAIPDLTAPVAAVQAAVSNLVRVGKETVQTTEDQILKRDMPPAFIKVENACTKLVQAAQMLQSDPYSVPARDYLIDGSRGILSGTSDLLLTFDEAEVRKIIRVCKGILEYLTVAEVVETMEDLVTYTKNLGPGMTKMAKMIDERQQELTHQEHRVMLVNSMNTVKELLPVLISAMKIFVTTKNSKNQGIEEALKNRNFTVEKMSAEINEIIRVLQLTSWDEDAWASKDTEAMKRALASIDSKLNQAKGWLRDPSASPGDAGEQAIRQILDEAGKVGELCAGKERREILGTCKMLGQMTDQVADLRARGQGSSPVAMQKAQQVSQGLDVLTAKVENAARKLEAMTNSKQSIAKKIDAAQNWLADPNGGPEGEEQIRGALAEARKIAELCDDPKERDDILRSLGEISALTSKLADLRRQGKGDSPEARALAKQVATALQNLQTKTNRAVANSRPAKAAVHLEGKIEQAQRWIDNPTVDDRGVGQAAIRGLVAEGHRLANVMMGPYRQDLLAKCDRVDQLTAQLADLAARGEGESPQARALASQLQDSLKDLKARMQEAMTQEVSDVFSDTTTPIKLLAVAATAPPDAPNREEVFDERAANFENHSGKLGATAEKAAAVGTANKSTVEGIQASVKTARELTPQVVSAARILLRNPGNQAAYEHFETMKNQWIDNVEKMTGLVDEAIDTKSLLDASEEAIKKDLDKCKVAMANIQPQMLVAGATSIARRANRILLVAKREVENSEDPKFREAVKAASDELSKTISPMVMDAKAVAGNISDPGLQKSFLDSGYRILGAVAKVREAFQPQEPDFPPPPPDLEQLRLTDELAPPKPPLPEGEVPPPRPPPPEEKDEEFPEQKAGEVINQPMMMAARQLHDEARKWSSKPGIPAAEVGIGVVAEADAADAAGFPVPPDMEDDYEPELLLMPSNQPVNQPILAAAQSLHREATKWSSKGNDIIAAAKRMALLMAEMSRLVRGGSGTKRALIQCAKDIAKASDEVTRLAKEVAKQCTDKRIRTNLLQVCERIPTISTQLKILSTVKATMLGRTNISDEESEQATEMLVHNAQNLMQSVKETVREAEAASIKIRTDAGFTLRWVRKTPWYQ

[10] = biological target: T10, HeLa cell extract proteins (Homo sapiens, UniProt P25789)
T10 construct: endogenous in cells; host or cells: HeLa cell extract
T10 sequence (P25789 1-261): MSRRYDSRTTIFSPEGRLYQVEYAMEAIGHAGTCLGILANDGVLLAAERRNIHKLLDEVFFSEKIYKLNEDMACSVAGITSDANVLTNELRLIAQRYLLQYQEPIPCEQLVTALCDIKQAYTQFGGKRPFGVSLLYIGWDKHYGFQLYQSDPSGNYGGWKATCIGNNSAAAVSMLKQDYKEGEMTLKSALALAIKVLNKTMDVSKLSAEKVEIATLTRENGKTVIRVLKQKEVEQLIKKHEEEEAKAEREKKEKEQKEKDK

[11] = HeLa, protein YWHAZ (28 KDA PROTEIN.)
[12] = HeLa, protein ZC3H8 (ZINC FINGER CCCH DOMAIN-CONTAINING PROTEIN 8)
[13] = HeLa, protein DDX5 (PROBABLE ATP-DEPENDENT RNA HELICASE DDX5)
[14] = HeLa, protein CLTC (ISOFORM 1 OF CLATHRIN HEAVY CHAIN 1)

T7 sequence (Q99570 whole entry): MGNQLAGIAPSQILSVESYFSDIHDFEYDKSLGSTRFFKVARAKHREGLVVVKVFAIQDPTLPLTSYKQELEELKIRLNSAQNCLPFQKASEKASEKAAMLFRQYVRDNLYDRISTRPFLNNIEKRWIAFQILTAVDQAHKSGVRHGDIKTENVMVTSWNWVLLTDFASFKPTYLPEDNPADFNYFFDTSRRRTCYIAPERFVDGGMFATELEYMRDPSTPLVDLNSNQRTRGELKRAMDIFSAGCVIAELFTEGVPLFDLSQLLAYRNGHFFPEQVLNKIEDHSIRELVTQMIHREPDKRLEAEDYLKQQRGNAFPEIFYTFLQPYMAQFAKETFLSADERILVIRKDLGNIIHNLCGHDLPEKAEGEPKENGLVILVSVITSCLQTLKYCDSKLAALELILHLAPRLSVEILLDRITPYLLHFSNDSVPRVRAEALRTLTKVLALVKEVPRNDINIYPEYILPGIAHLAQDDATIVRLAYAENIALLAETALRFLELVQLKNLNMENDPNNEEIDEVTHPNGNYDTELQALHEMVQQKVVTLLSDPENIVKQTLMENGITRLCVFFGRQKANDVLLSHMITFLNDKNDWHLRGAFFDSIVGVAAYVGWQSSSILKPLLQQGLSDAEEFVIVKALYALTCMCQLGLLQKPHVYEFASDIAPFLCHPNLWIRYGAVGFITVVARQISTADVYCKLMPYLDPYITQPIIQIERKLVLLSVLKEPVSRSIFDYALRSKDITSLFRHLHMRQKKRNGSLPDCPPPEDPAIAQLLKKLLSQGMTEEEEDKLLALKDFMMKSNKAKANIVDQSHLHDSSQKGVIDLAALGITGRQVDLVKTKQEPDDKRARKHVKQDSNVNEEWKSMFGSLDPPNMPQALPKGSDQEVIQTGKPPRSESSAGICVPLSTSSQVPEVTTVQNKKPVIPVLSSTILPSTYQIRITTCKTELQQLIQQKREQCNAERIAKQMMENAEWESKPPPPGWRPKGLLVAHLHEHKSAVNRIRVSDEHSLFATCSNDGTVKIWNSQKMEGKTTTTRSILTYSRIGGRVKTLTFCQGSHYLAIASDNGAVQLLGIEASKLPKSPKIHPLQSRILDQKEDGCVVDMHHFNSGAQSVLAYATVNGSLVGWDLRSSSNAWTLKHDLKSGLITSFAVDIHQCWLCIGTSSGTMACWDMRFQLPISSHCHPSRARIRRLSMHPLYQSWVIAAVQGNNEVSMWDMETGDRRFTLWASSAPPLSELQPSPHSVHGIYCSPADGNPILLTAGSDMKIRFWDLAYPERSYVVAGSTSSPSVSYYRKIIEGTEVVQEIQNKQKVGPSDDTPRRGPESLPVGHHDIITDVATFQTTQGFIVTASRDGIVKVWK
T2 sequence (P49189 whole entry): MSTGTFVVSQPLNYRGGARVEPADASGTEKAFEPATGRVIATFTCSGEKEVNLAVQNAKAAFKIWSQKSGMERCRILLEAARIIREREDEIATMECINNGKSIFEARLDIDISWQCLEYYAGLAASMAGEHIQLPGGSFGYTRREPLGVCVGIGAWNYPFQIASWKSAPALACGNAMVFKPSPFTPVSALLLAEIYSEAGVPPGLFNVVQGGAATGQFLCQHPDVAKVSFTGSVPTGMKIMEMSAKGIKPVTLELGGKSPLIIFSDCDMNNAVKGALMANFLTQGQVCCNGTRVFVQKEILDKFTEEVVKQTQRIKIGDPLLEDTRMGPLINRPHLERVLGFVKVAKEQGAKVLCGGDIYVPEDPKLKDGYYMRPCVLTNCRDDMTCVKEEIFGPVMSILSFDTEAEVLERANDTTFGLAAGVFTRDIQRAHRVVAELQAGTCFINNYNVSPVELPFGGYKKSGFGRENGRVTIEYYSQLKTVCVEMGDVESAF
T6 sequence (Q00610 whole entry): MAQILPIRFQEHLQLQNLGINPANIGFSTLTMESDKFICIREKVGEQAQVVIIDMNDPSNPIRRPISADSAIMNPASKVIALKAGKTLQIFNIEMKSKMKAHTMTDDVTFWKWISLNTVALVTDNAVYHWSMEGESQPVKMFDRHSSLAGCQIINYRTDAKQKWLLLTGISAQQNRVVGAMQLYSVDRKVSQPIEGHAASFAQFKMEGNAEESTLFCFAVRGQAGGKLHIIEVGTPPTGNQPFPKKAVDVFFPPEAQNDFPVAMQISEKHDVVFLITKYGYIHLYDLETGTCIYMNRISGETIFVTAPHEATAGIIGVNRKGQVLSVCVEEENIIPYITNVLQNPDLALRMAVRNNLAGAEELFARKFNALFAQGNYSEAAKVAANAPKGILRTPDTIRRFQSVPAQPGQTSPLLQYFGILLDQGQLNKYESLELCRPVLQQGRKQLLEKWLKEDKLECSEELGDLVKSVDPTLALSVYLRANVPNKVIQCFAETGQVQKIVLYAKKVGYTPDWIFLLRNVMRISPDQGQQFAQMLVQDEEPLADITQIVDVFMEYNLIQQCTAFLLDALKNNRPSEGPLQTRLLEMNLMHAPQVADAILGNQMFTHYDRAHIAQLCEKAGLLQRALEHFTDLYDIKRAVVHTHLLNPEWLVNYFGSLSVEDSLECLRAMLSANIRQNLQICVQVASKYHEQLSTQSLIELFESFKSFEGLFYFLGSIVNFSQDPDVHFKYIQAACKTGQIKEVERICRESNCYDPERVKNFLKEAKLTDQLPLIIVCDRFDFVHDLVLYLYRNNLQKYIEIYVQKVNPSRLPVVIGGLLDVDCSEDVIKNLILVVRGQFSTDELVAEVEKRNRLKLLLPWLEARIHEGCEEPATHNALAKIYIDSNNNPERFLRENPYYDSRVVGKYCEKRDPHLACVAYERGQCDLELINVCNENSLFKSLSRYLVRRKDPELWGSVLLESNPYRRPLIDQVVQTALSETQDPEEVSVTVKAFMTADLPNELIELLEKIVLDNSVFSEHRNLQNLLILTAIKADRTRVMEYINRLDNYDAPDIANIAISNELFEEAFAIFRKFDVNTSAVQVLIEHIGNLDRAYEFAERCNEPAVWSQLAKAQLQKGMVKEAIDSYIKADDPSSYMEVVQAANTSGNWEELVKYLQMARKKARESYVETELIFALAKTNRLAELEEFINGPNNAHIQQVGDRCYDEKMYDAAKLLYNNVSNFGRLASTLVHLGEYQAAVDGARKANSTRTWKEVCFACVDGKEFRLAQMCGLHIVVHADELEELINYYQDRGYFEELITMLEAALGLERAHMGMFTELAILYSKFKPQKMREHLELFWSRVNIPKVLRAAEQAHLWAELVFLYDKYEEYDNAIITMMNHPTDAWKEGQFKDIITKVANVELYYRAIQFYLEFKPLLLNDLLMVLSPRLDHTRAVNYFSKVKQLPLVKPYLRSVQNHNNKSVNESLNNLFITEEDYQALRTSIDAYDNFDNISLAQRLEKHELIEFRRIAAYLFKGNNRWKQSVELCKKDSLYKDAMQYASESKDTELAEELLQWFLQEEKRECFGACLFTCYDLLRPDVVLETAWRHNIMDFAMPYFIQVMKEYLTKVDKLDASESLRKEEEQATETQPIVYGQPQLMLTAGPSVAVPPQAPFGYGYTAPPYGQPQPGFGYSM
T3 sequence (P17844 whole entry): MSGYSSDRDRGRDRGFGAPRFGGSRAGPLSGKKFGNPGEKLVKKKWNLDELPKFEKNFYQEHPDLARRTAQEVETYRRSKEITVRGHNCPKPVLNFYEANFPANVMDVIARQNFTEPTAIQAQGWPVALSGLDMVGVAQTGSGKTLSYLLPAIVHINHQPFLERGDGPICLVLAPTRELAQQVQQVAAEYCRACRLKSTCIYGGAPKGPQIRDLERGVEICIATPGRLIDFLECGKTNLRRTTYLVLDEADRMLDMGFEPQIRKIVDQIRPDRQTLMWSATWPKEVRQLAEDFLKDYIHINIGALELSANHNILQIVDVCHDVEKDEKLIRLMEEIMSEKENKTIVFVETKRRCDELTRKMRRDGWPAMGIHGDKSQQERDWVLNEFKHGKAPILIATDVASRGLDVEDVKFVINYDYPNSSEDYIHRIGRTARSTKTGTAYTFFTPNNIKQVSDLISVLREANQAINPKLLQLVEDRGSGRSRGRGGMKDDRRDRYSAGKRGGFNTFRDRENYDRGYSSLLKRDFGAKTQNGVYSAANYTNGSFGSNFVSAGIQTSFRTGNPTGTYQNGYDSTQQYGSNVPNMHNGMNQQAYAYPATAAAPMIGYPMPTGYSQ

| Structure (SMILES) | fold changes relative to vehicle control ([1]; protein ZC3H8, HeLa) | fold changes relative to vehicle control ([2]; protein ALDH9A1, HeLa) | fold changes relative to vehicle control ([3]; HeLa, protein DDX5) | fold changes relative to vehicle control ([4]; HeLa, protein ATM) | fold changes relative to vehicle control [5, 11] | fold changes relative to vehicle control ([6]; protein CLTC, HeLa) | fold changes relative to vehicle control ([7]; captured protein PIK3R4, HeLa) | fold changes relative to vehicle control ([8]; HeLa, protein GMDS) | fold changes relative to vehicle control ([9]; protein VCL, HeLa) | fold changes relative to vehicle control ([10]; protein PSMA4, HeLa) | fold changes relative to vehicle control [1, 12] | fold changes relative to vehicle control ([2]; HeLa, captured protein ALDH9A1) | fold changes relative to vehicle control [3, 13] | fold changes relative to vehicle control ([5]; HeLa, protein YWHAZ) | fold changes relative to vehicle control [6, 14] | fold changes relative to vehicle control ([7]; HeLa, protein PIK3R4) | fold changes relative to vehicle control ([8]; HeLa, captured protein GMDS) | fold changes relative to vehicle control ([10]; HeLa, captured protein PSMA4) | further results |
| --- | --- | --- | --- | --- | --- | --- | --- | --- | --- | --- | --- | --- | --- | --- | --- | --- | --- | --- | --- |
| Nc1nc2cccc(-c3ccccc3)c2n1Cc1ccc(Cl)c(Cl)c1 [compound 3] | 0.99 | 1.08 | 0.9 | 1.14 | 0.72 fold | 1.2 | 0.95 | 1.25 | 0.99 | 1.06 |  |  |  |  |  |  |  |  |  |
| CCCCCCOc1ccc(Cc2cnc(N)nc2N)cc1 [compound 1] | 1.19 | 1 | 0.92 | 1.03 | 1.31 fold | 0.83 | 1.03 | 1.06 | 1.12 | 1.1 |  |  |  |  |  |  |  |  |  |
| NCCCNc1ccc(C(=O)NC(CCC(=O)O)C(=O)O)cc1 (stereo not shown) [compound 7] |  |  |  | 1.09 |  |  |  |  | 0.96 |  | 1 | 0.98 | 0.93 | 0.9 | 1.18 | 1.08 | 1.12 | 1.03 |  |
| CCCCCCOc1cccc(Cc2cnc(N)nc2N)c1 [compound 2] | 0.96 | 1.01 | 1.12 | 1.01 | 2.26 fold | 1.07 | 1.07 | 1.21 | 1.8 | 1.19 |  |  |  |  |  |  |  |  |  |
| NCCOCCOCC(=O)Nc1nc2ncc(CNc3ccc(C(=O)NC(CCC(=O)O)C(=O)O)cc3)nc2c(=O)[nH]1 (stereo not shown) [compound 6] |  |  |  | 1.1 |  |  |  |  | 1.21 |  | 1.04 | 0.92 | 1.15 | 1.22 | 1.11 | 1.2 | 0.98 | 1.06 |  |
| Nc1nc2[nH]cc(CCc3ccc(C(=O)N[C@@H](CCC(=O)O)C(=O)O)cc3)c2c(=O)[nH]1 [PTX, pemetrexed] |  |  |  |  |  |  |  |  |  |  |  |  |  |  |  |  |  |  | fold changes relative to vehicle control [1]: 1.51; fold changes relative to vehicle control [2]: 1.02; fold changes relative to vehicle control [3]: 0.82; fold changes relative to vehicle control [4]: 1.04; fold changes relative to vehicle control [5]: 1.08; fold changes relative to vehicle control [6]: 1.24; fold changes relative to vehicle control [7]: 1.08; fold changes relative to vehicle control [8]: 1; fold changes relative to vehicle control [9]: 1.06; fold changes relative to vehicle control [10]: 1.02 |
| Nc1nc2c(c(=O)[nH]1)N(C=O)C(CNc1ccc(C(=O)N[C@@H](CCC(=O)O)C(=O)O)cc1)CN2 (stereo partly shown) [LEU, leucovorin] |  |  |  | 0.92 |  |  |  |  | 0.98 |  | 1.22 | 0.9 | 0.88 | 1.05 | 1.27 | 0.97 | 1 | 1.05 |  |
